SMILES strings stand for the structures.

The text below walks through data of US20200187527A1, “METHODS TO INCREASE SILAGE QUALITY IN CROPS” (Valent BioSciences LLC, priority 2013, published 2020).

One assay has as its system smooth bromegrass. To be noted: GA3 applications; cited from earlier work.
The test system of assay [1] is corn. The assay can be described thus: Example 2 field trial: corn silage quality after RyzUp Smartgrass at V5 under drought stress. It counts as in vivo, Zea mays (corn). To be noted: vs untreated Control, 6.4 g GA3/acre (16 g/ha) at V5. On the procedure:
(§1) Field trials were conducted at various locations. Portions of the field were treated with RyzUp® Smartgrass (40% (w/v) GA3 (available from Valent BioSciences Corporation), while other parts of the field were not treated. RyzUp® Smartgrass applications were limited to applications between V3 and V6, with spray volumes for foliar applications ranging from 10-25 gallons/acre.
(§2) Trials were harvested using commercial equipment at standard timings for corn silage. Both RyzUp® Smartgrass and untreated areas of the field were harvested separately in order to obtain biomass yield (ton/acre). Subsequently, the harvested plant material was used for producing silage.
(§3) Representative samples were taken for subsequent analysis. Forage was analyzed by standard methods to determine quality parameters including dry matter, crude protein, Acid Detergent Fiber (ADF), Neutral Detergent Fiber (NDF), and starch data. Calculations were included for moisture, adjusted crude protein, Total Digestible Nutrients (TDN), Net Energy for Lactation (NEL), Net Energy for Gain (NEG) and protein solubility. This information was then entered into the MILK 2006 University of Wisconsin Corn Silage evaluation system. Calculations of the milk production, energy content and digestibility per ton of corn biomass were carried out using a calculation method described in the following references: Schwab, E. C., and R. D. Shaver. (2001); b) Schwab, E C et al. (2003); and c) Undersander, D J et al., (1993)
Corn grown in a field trial was treated at the V5 stage with RyzUp® Smartgrass (GA3 (w/v) 40%) at a rate of 6.4 g GA^3/acre (16 g/ha). Treatments were made in a spray volume of 15 gallons of water per acre with added surfactant. The overall conditions of this trial were drought stress both before and following application.

For assay [2], the system named is corn. The assay can be described thus: Example 1 field trial: corn silage quality after foliar RyzUp Smartgrass at V4. It counts as in vivo, Zea mays (corn). Conditions: vs untreated Control; 3.2 g GA3/acre (8 g/ha) at V4. On the procedure:
as §1, §2, §3
Modern corn hybrid varieties were grown in a field trial. RyzUp® Smartgrass (40% GA3) was applied at V4 growth stage at a rate of 3.2 g GA^3/acre (8 g/ha). In this trial, silage quality data were analyzed for each variety and the means were used to calculate milk production (Table 1). Percent moisture, crude protein, ADF and NDF were decreased while TDN, starch, and milk production were increased.

For a further assay, the system named is alfalfa. Conditions: GA3 applications; cited from earlier work.

Regarding `C=C1C[C@]23C[C@@]1(O)CC[C@H]2[C@@]12C=C[C@H](O)[C@@](C)(C(=O)O1)[C@H]2[C@@H]3C(=O)O` [GA3, gibberellin 3], in the assay with smooth bromegrass, the dry weight result is “dose-dependent increase”, the growth result was “dose-dependent increase” and the “in vitro digestible dry matter (IVDDM)” value is recorded as “decreased”. Besides, in the assay on corn [1], the “% NDF, Percent Difference” value is on record as −17.8%; the “% Starch, Percent Difference” value is “+55.4%”; the “% TDN, Percent Difference” value is “+8%”. For the same molecule, in the assay with corn [2], the “% NDF, Percent Difference” value is reported as −2.7%; the “% Starch, Percent Difference” value is reported as “+16.7%”; the “% TDN, Percent Difference” value is “+1.2%”; the “Milk (lbs/t), Percent Difference” value is “+2.6%”. In the assay with alfalfa, the dry weight result was “dose-dependent increase”, the growth result is on record as “dose-dependent increase” and the “in vitro digestible dry matter (IVDDM)” value is “decreased”.
